Measurements as given in patent publication US9266876B2 (Actelion Pharmaceuticals Ltd., priority 2012, dated 2016).

How the values were obtained:
[1] = biological target: human CXCR3A (Homo sapiens (Human), UniProt P49682); test: FLIPR assay; type: cell-based; details: CHO-K1 cells expressing the human CXCR3A coupled to Galpha(16); CXCL10 agonist 20 nM; Fluo-4-AM fluorescence; mean values if determined several times
In short: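 CHO-K1 cells expressing CXCR3A coupled to Gα16 were loaded with Fluo-4-AM for 1 h in Hepes-buffered HBSS, pH 7.4, with 5 mM probenecid. Compound dilutions were added on the FLIPR, followed by CXCL10 (added as a 20 nM solution). Baseline-subtracted peak fluorescence was fitted to a single-site curve for IC50.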

[2] = biological target: CXCR3 (Homo sapiens (Human), UniProt P49682); test: Receptor internalization assay; type: cell-based; details: human whole blood; final CXCL10 concentration 9 nM; 30 min 37° C.; CXCR3 cell surface expression on CD3 positive cells, flow cytometer; read-out: Internalization IC50
CXCR3, sequence (P49682 whole entry): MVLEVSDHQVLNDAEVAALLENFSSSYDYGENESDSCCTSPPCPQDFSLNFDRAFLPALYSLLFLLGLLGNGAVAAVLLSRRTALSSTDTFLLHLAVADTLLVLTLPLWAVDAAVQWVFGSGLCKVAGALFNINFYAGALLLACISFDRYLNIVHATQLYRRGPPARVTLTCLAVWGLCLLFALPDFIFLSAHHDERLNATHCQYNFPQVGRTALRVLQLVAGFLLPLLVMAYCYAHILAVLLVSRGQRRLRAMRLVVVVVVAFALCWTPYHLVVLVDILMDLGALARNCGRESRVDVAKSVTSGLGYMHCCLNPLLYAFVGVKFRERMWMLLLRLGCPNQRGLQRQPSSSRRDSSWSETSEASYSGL
Protocol: B): Receptor Internalization Assay:
Stock solutions of test compounds are made up at a concentration of 10 mM in DMSO, and serially diluted in PBS containing 0.5% BSA to concentrations required for inhibition dose response curves. Diluted compounds are then mixed with an equal volume of CXCL10 (Peprotech) diluted in PBS. Anticoagulated venous human whole blood is added to the mixture, which is then incubated in a CO2 incubator at 37° C. to allow for ligand mediated receptor internalization (final CXCL10 concentration is 9 nM). After 30′, the blood is mixed with fluorescently labeled CXCR3 and CD3 specific antibodies (Becton Dickinson) and incubated on ice for 10 minutes. Samples are then mixed with BD FACS Lysing Solution (Becton Dickinson) in order to eliminate red blood cells. After washing the cells with PBS containing 0.5% BSA, the samples are then analyzed in a flow cytometer (FACS Canto II, Becton Dickinson). For data analysis using FACSDiva software (Becton Dickinson), the mean fluorescence corresponding to CXCR3 cell surface expression was determined on CD3 positive cells. The program GraphPad Prism is used to fit the data to a single site dose response curve and to calculate IC50 values.

human CXCR3A, sequence (P49682 whole entry): as above

Row | Structure (SMILES) | IC50 [1] | IC50 [2]
1 | Cn1c(=O)n(CC(=O)N2CCN(c3scnc3-c3nc4ccc(OC(F)(F)F)cc4[nH]3)CC2)c2ccccc21 [Example 74, 1-Methyl-3-(2-oxo-2-{4-[4-(6-trifluoromethoxy-1H-benzoimidazol-2-yl)-thiazol-5-yl]-piperazin-1-yl}-ethyl)-1,3-dihydro-benzoimidazol-2-one] | 2 nM | 1040 nM
2 | Cn1c(=O)n(CC(=O)N2CCN(c3scnc3-c3nc4cc(C#N)ccc4[nH]3)CC2)c2ccccc21 [Example 75, 2-(5-{4-[2-(3-Methyl-2-oxo-2,3-dihydro-benzoimidazol-1-yl)-acetyl]-piperazin-1-yl}-thiazol-4-yl)-1H-benzoimidazole-5-carbonitrile] | 15 nM | 721 nM
3 | O=C(CN1C(=O)CCc2ccccc21)N1CCN(c2scnc2-c2nc3ccccc3[nH]2)CC1 [Example 77, 1-(2-{4-[4-(1H-Benzoimidazol-2-yl)-thiazol-5-yl]-piperazin-1-yl}-2-oxo-ethyl)-3,4-dihydro-1H-quinolin-2-one] | 6 nM | 1440 nM
4 | O=C(CN1C(=O)COc2ccccc21)N1CCN(c2scnc2-c2nc3ccccc3[nH]2)CC1 [Example 78, 4-(2-{4-[4-(1H-Benzoimidazol-2-yl)-thiazol-5-yl]-piperazin-1-yl}-2-oxo-ethyl)-4H-benzo[1,4]oxazin-3-one] | 11 nM | 3120 nM
5 | O=C(Cn1cnc2cccnc21)N1[C@@H]2CC[C@H]1CN(c1scnc1-c1nc3ccccc3[nH]1)C2 [Example 79, rac-1-{(1S*,5R*)-3-[4-(1H-Benzoimidazol-2-yl)-thiazol-5-yl]-3,8-diaza-bicyclo[3.2.1]oct-8-yl}-2-imidazo[4,5-b]pyridin-3-yl-ethanone] | 6 nM | 828 nM
6 | C[C@@H]1CN(c2sc(Br)nc2-c2nc3ccccc3[nH]2)CCN1C(=O)Cn1cnc2cccnc21 [Example 80, 1-{(R)-4-[4-(1H-Benzoimidazol-2-yl)-2-bromo-thiazol-5-yl]-2-methyl-piperazin-1-yl}-2-imidazo[4,5-b]pyridin-3-yl-ethanone] | 1 nM | 459 nM
7 | C[C@@H]1CN(c2scnc2-c2nc3ccc(Cl)cc3[nH]2)CCN1C(=O)Cn1cnc2cccnc21 [Example 83, 1-{(R)-4-[4-(6-Chloro-1H-benzoimidazol-2-yl)-thiazol-5-yl]-2-methyl-piperazin-1-yl}-2-imidazo[4,5-b]pyridin-3-yl-ethanone] | 1 nM | 340 nM
8 | C[C@@H]1CN(c2scnc2-c2nc3cc(Cl)ccc3[nH]2)CCN1C(=O)Cn1c(=O)oc2ccccc21 [Example 84, 3-(2-{(R)-4-[4-(5-Chloro-1H-benzoimidazol-2-yl)-thiazol-5-yl]-2-methyl-piperazin-1-yl}-2-oxo-ethyl)-3H-benzooxazol-2-one] | 1 nM | 517 nM
9 | Cc1ccc2[nH]c(-c3ncsc3N3CCN(C(=O)Cn4cnc5cccnc54)[C@H](C)C3)nc2c1 [Example 85, 2-Imidazo[4,5-b]pyridin-3-yl-1-{(R)-2-methyl-4-[4-(5-methyl-1H-benzoimidazol-2-yl)-thiazol-5-yl]-piperazin-1-yl}-ethanone] | 1 nM | 499 nM
10 | Cc1cc2[nH]c(-c3ncsc3N3CCN(C(=O)Cn4cnc5cccnc54)[C@H](C)C3)nc2cc1Cl [Example 87, 1-{(R)-4-[4-(5-Chloro-6-methyl-1H-benzoimidazol-2-yl)-thiazol-5-yl]-2-methyl-piperazin-1-yl}-2-imidazo[4,5-b]pyridin-3-yl-ethanone] | 1 nM | 205 nM
11 | CC(C)c1ccc2nc(-c3ncsc3N3CCN(C(=O)Cn4cnc5cccnc54)[C@H](C)C3)[nH]c2c1 [Example 88, 2-Imidazo[4,5-b]pyridin-3-yl-1-{(R)-4-[4-(6-isopropyl-1H-benzoimidazol-2-yl)-thiazol-5-yl]-2-methyl-piperazin-1-yl}-ethanone] | 1 nM | 126 nM
12 | C[C@@H]1CN(c2scnc2-c2nc3cc(F)c(F)cc3[nH]2)CCN1C(=O)Cn1cnc2cccnc21 [Example 91, 1-{(R)-4-[4-(5,6-Difluoro-1H-benzoimidazol-2-yl)-thiazol-5-yl]-2-methyl-piperazin-1-yl}-2-imidazo[4,5-b]pyridin-3-yl-ethanone] | 0.4 nM | 895 nM
13 | C[C@@H]1CN(c2scnc2-c2nc3cc(C(F)(F)F)ccc3[nH]2)CCN1C(=O)Cn1cnc2cccnc21 [Example 92, 2-Imidazo[4,5-b]pyridin-3-yl-1-{(R)-2-methyl-4-[4-(5-trifluoromethyl-1H-benzoimidazol-2-yl)-thiazol-5-yl]-piperazin-1-yl}-ethanone] | 1 nM | 317 nM
14 | C[C@@H]1CN(c2scnc2-c2nc3cc(F)ccc3[nH]2)CCN1C(=O)Cn1cnc2cccnc21 [Example 96, 1-{(R)-4-[4-(5-Fluoro-1H-benzoimidazol-2-yl)-thiazol-5-yl]-2-methyl-piperazin-1-yl}-2-imidazo[4,5-b]pyridin-3-yl-ethanone] | 0.5 nM | 566 nM
15 | CCc1ccc2nc(-c3ncsc3N3CCN(C(=O)Cn4cnc5cccnc54)[C@H](C)C3)[nH]c2c1 [Example 99, 1-{(R)-4-[4-(6-Ethyl-1H-benzoimidazol-2-yl)-thiazol-5-yl]-2-methyl-piperazin-1-yl}-2-imidazo[4,5-b]pyridin-3-yl-ethanone] | 1 nM | 221 nM
16 | C[C@@H]1CN(c2scnc2-c2nc3ccc(-c4ccccc4)cc3[nH]2)CCN1C(=O)Cn1cnc2cccnc21 [Example 100, 2-Imidazo[4,5-b]pyridin-3-yl-1-{(R)-2-methyl-4-[4-(6-phenyl-1H-benzoimidazol-2-yl)-thiazol-5-yl]-piperazin-1-yl}-ethanone] | 1 nM | 747 nM
17 | C[C@@H]1CN(c2sc(C(F)(F)F)nc2-c2nc3ccccc3[nH]2)CCN1C(=O)CN1C(=O)Cc2ccccc21 [Example 103, 1-(2-{(R)-4-[4-(1H-Benzoimidazol-2-yl)-2-trifluoromethyl-thiazol-5-yl]-2-methyl-piperazin-1-yl}-2-oxo-ethyl)-1,3-dihydro-indol-2-one] | 1 nM | 81 nM
18 | C[C@@H]1CN(c2sc(C(F)(F)F)nc2-c2nc3ccccc3[nH]2)CCN1C(=O)Cn1c(=O)[nH]c2cccnc21 [Example 104, 3-(2-{(R)-4-[4-(1H-Benzoimidazol-2-yl)-2-trifluoromethyl-thiazol-5-yl]-2-methyl-piperazin-1-yl}-2-oxo-ethyl)-1,3-dihydro-imidazo[4,5-b]pyridin-2-one] | 1 nM | 119 nM
19 | O=C(Cn1ncc2ccccc21)N1CCN(c2scnc2-c2nc3ccccc3[nH]2)CC1 [Example 109, 1-{4-[4-(1H-Benzoimidazol-2-yl)-thiazol-5-yl]-piperazin-1-yl}-2-indazol-1-yl-ethanone] | 16 nM | 1970 nM
20 | C[C@@H]1CN(c2sc(C3COC3)nc2-c2nc3ccccc3[nH]2)CCN1C(=O)Cn1cnc2cccnc21 [Example 113, 1-{(R)-4-[4-(1H-Benzoimidazol-2-yl)-2-oxetan-3-yl-thiazol-5-yl]-2-methyl-piperazin-1-yl}-2-imidazo[4,5-b]pyridin-3-yl-ethanone] | 9 nM | 1510 nM
21 | C[C@@H]1CN(c2scnc2-c2nc3ccccc3[nH]2)CCN1C(=O)Cn1ncc2cccnc21 [Example 115, 1-{(R)-4-[4-(1H-Benzoimidazol-2-yl)-thiazol-5-yl]-2-methyl-piperazin-1-yl}-2-pyrazolo[3,4-b]pyridin-1-yl-ethanone] | 1 nM | 809 nM
22 | C[C@@H]1CN(c2scnc2-c2nc3ccccc3[nH]2)CCN1C(=O)Cn1cc2cccnc2n1 [Example 116, 1-{(R)-4-[4-(1H-Benzoimidazol-2-yl)-thiazol-5-yl]-2-methyl-piperazin-1-yl}-2-pyrazolo[3,4-b]pyridin-2-yl-ethanone] | 3 nM | 306 nM
23 | C[C@@H]1CN(c2scnc2-c2nc3ccccc3[nH]2)CCN1C(=O)Cc1cccc2ccccc12 [Example 118, 1-{(R)-4-[4-(1H-Benzoimidazol-2-yl)-thiazol-5-yl]-2-methyl-piperazin-1-yl}-2-naphthalen-1-yl-ethanone] | 3 nM | 3780 nM
24 | C[C@@H]1CN(c2scnc2-c2nc3ccccc3[nH]2)CCN1C(=O)Cc1cccc2cccnc12 [Example 119, 1-{(R)-4-[4-(1H-Benzoimidazol-2-yl)-thiazol-5-yl]-2-methyl-piperazin-1-yl}-2-quinolin-8-yl-ethanone] | 2 nM | 2450 nM
25 | C[C@@H]1CN(c2scnc2-c2nc3ccccc3[nH]2)CCN1C(=O)Cc1noc2ccccc12 [Example 130, 2-Benzo[d]isoxazol-3-yl-1-{(R)-4-[4-(1H-benzoimidazol-2-yl)-thiazol-5-yl]-2-methyl-piperazin-1-yl}-ethanone] | 3 nM | 2670 nM
